Data on one compound can be found in patent publication US20090203753A1, “7-(2-amino-1-hydroxy-ethyl)-4-hydroxybenzothiazol-2(3H)-one-derivatives as beta2 adrenoreceptor agonists” (AstraZeneca AB, priority 2005, published 2009).

The structures appear in SMILES notation.

One experiment deals with T1, β2 receptor (Homo sapiens, UniProt P07550).
T1 construct: endogenous in cells; host or cells: H292 cells
Put plainly: Alternative adrenergic β2 mediated cAMP production in H292 cells (60 minutes with test compound). The format is cell-based. Here is the method:
Alternative Adrenergic (β2 Mediated cAMP Production
H292 cells were grown in 225 cm2 flasks incubator at 37° C., 5% CO2 in RPMI medium containing, 10% (v/v) FBS (foetal bovine serum) and 2 mM L-glutamine.
Adherent H292 cells were removed from tissue culture flasks by treatment with Accutase™ cell detachment solution for 15 minutes. Flasks were incubated for 15 minutes in a humidified incubator at 37° C., 5% CO2. Detached cells were re-suspended in RPMI media (containing 10% (v/v) FBS and 2 mM L-glutamine) at 0.05×10^6 cells per mL. 5000 cells in 100 μL were added to each well of a tissue-culture-treated 96-well plate and the cells incubated overnight in a humidified incubator at 37° C., 5% CO2. The culture media was removed and cells were washed twice with 100 μL assay buffer and replaced with 50 μL assay buffer (HBSS solution containing 10 mM HEPES pH7.4 and 5 mM glucose). Cells were rested at room temperature for 20 minutes after which time 25 μL of rolipram (1.2 mM made up in assay buffer containing 2.4% (v/v) dimethylsulphoxide) was added. Cells were incubated with rolipram for 10 minutes after which time test compounds were added and the cells were incubated for 60 minutes at room temperature. The final rolipram concentration in the assay was 300 μM and final vehicle concentration was 1.6% (v/v) dimethylsulphoxide. The reaction was stopped by removing supernatants, washing once with 100 μL assay buffer and replacing with 50 μL lysis buffer. The cell monolayer was frozen at −80° C. for 30 minutes (or overnight).
The concentration of cAMP (cyclic adenosine monophosphate) in the cell lysate was determined using AlphaScreen™ methodology. The frozen cell plate was thawed for 20 minutes on a plate shaker then 10 μL of the cell lysate was transferred to a 96-well white plate. 40 μL of mixed AlphaScreen™ detection beads pre-incubated with biotinylated cAMP, was added to each well and the plate incubated at room temperature for 10 hours in the dark. The AlphaScreen™ signal was measured using an EnVision spectrophotometer (Perkin-Elmer Inc.) with the recommended manufacturer's settings. cAMP concentrations were determined by reference to a calibration curve determined in the same experiment using standard cAMP concentrations. Concentration response curves for agonists were constructed and data was fitted to a four parameter logistic equation to determine both the pEC50 and Intrinsic Activity. […]
(In general: Changes in cAMP serve as a functional read-out for many G protein-coupled receptors.)

Experiment [1] concerns the target T2, recombinant human α1D receptor (Homo sapiens, UniProt P25100).
T2 construct: expressed in transfected cells; host or cells: HEK293
T2 sequence (P25100 1-572): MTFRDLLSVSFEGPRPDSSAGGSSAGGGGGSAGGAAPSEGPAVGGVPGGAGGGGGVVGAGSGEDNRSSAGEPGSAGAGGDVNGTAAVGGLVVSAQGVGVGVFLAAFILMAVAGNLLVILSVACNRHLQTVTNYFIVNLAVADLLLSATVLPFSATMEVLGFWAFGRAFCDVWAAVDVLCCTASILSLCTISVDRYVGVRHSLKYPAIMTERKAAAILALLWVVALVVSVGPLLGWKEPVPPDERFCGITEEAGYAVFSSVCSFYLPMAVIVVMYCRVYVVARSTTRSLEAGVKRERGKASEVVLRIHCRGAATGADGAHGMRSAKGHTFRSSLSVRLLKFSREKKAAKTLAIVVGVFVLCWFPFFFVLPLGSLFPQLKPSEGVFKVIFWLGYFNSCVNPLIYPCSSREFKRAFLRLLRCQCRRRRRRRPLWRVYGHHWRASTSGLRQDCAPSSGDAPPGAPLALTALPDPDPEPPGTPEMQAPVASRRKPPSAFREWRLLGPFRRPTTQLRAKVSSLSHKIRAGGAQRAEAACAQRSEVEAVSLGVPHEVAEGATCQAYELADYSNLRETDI
Put plainly: Adrenergic α1D selectivity assay, [3H]-prazosin binding to HEK293 membranes. Conditions: read-out: α1 bind pIC50 (converted). Here is the method:
Membranes were prepared from human embryonic kidney 293 (HEK293) cells expressing recombinant human α1D receptor. These were diluted in Assay Buffer (50 mM HEPES, 1 mM EDTA, 0.1% gelatin, pH 7.4) to provide a final concentration of membranes that gave a clear window between maximum and minimum specific binding.
Assays were performed in U-bottomed 96-well polypropylene plates. 10 μL [^3H]-prazosin (0.3 nM final concentration) and 10 μL of test compound (10× final concentration) were added to each test well. For each assay plate 8 replicates were obtained for [^3H]-prazosin binding in the presence of 10 μL vehicle (10% (v/v) DMSO in Assay Buffer; defining maximum binding) or 10 μL BMY7378 (10 μM final concentration; defining non-specific binding (NSB)). Membranes were then added to achieve a final volume of 100 μL. The plates were incubated for 2 hours at room temperature and then filtered onto PEI coated GF/B filter plates, pre-soaked for 1 hour in Assay Buffer, using a 96-well plate Tomtec cell harvester. Five washes with 250 μL wash buffer (50 mM HEPES, 1 mM EDTA, pH 7.4) were performed at 4° C. to remove unbound radioactivity. The plates were dried then sealed from underneath using Packard plate sealers and MicroScint-O (50 μL) was added to each well. The plates were sealed (TopSeal A) and filter-bound radioactivity was measured with a scintillation counter (TopCount, Packard BioScience) using a 3-minute counting protocol.
Total specific binding (B0) was determined by subtracting the mean NSB from the mean maximum binding. NSB values were also subtracted from values from all other wells.

T1 sequence (P07550 whole entry): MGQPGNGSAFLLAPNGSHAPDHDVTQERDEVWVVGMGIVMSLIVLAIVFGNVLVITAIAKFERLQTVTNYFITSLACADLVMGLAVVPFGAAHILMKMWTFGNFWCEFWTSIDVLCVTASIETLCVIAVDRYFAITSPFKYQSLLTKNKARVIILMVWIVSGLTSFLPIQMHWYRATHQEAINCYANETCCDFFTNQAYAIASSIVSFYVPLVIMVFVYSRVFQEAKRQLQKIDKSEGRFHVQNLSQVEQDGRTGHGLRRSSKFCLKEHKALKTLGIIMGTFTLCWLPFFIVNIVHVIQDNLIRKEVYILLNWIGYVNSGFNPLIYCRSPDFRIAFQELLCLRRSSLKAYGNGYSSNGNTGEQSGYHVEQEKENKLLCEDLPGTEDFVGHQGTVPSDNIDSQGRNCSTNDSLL

Take `CCN(CC)CCN(CCNC[C@H](O)c1ccc(O)c2[nH]c(=O)sc12)C(=O)CCOCCc1ccccc1` [Example 7, N-[2-(Diethylamino)ethyl]-N-(2-{[(2R)-2-hydroxy-2-(4-hydroxy-2-oxo-2,3-dihydro-1,3-benzothiazol-7-yl)ethyl]amino}ethyl)-3-(2-phenylethoxy)propanamide]: the EC50 on β2 receptor (cAMP, 60 minutes incubation with compound, 300 μM rolipram, read-out: β2 pEC50 (converted)) is 0.00398 µM. The “β2 Int Act” value at β2 receptor (fraction relative to the maximum activity determined for formoterol, 60 minutes incubation) turned out to be 1. Moreover, the IC50 in experiment [1] is 5.01 µM.
